From patent publication US10323035B2, “Co-crystal of a CDK inhibitor and an MEK inhibitor and process of preparation thereof” (CRYSTAL PHARMATECH CO., LTD, priority 2015, dated 2019)

Assay: Pharmacokinetics in rats after oral administration
Format: in vivo
Settings: male, SD, blood
Experimental: Investigations on the pharmacokinetic characteristics of MEK162 free base single compound (group A), equimolar physical mixture of MEK162 and LEE011 succinate (group B) and co-crystal Form I of MEK162-LEE011 (group C) in the rats were conducted. Male SD rats with standard weight were chosen as experimental objects, three rats in a group and were orally administrated. The dosage in group A was 5 mg·kg^−1 (calculated as free base), the dosages of two components in group B were both 5 mg·kg^−1 (calculated as free base), the dosage in group C was 10 mg·kg^−1 (calculated as co-crystal anhydrate form), and dosage of these two components was around 5 mg·kg^−1 (calculated as free base) as calculated by molecular weight.

Cn1cnc2c(F)c(Nc3ccc(Br)cc3F)c(C(=O)NOCCO)cc21 [MEK162, 5-[(4-bromo-2-fluorophenyl)amino]-4-fluoro-N-(2-hydroxyethoxy)-1-methyl-1H-benzimidazol-6-carboxamide]
Tmax (5 mg·kg^−1, rat, read-out: time to reach maximum concentration (Tmax)): 15 min
AUC(0-inf) (rat, about 5 mg·kg^−1 of each component as free base, read-out: AUC0-inf of MEK162): 11300 ± 895 ng·h/mL
Cmax (rat, about 5 mg·kg^−1 of each component as free base, read-out: maximum concentration of blood drug (Cmax) of MEK162): 3240 ± 576 ng/mL
